From US20220406434A1, “METHOD AND SYSTEM FOR EVALUATING OPTIMIZED CONCENTRATION TRAJECTORIES FOR DRUG ADMINISTRATION” (DEUTSCHES KREBSFORSCHUNGSZENTRUM STIFTUNG DES OEFFENTLICHEN …, priority 2019, published 2022)

Experiments:
[1] = tested on: triple-negative breast cancer cells; conditions: sequential but not simultaneous application of erlotinib and doxorubicin, time interval of about 24 hours; cited from earlier work
CD95-HeLa cells = assay: Live-cell imaging with drug perfusion: CD95L-induced apoptosis under RL-optimized versus constant concentration trajectory; type: cell-based, human
Protocol: The experimental setup consisted of an automated live-cell microscope and infusion pumps for empty medium or CD95L stock solution placed inside a standard cell culture incubator. The microscope was combined with a surrounding, separable, autoclavable box for ensuring a sterile environment inside the incubator. Empty medium and the CD95L stock solution were guided through silicon tubes (inner diameter: 1 mm) connected to a t-shaped adapter piece. The t-adapter was connected with a microfluidic chip containing approximately 80,000 CD95-HeLa cells (human cervix carcinoma cell line overexpressing CD95 death receptors). Thereby, cells could be perfused by a mixture of CD95L stock solution and empty medium. For adjusting the CD95L concentration in each step of an experiment, a constant volume of 0.8 ml was infused. This volume comprised varying fractions of CD95L stock solution and empty medium. […] The total dose was set to 400 ng of CD95L according to a stock solution volume of 1.6 ml. Accordingly, cells could be perfused with CD95L at concentrations between zero and the stock concentration. During the experiment, images of the perfused cells were recorded every 3 minutes using the live-cell microscope. […]

Molecule | cell death [1] | cell death kinetics (apoptotic cell fractions) (CD95-HeLa cells; first RL-optimized CD95L concentration trajectory vs constant 50 ng/ml, same total dose 400 ng, 180 minutes, FIG. 13F) | cell death (apoptotic cell fractions) (CD95-HeLa cells; optimized CD95L trajectory from second RL iteration vs constant concentration or first-iteration trajectory, total dose 400 ng, FIG. 14G)
COc1cccc2c1C(=O)c1c(O)c3c(c(O)c1C2=O)C[C@@](O)(C(=O)CO)C[C@@H]3O[C@H]1C[C@H](N)[C@H](O)[C@H](C)O1 [doxorubicin] | maximizes cell death |  | 
C#Cc1cccc(Nc2ncnc3cc(OCCOC)c(OCCOC)cc23)c1 [erlotinib] | maximizes cell death |  | 
CD95L: CD95 cell death ligand; binds CD95 death receptors and induces apoptosis (protein, UniProt P48023 130-281, looked up) Tumor necrosis factor ligand …: QIGHPSPPPEKKELRKVAHLTGKSNSRSMPLEWEDTYGIVLLSGVKYKKGGLVINETGLYFVYSKVYFRGQSCNNLPLSHKVYMRNSKYPQDLVMMEGKMMSYCTTGQMWARSSYLGAVFNLTSADHLYVNVSELSLVNFEESQTFFGLYKL |  | substantially accelerated cell death kinetics | accelerated cell death
